Data on 29 molecules can be found in US8450354B2, “Substituted imidazo[1,2-b]pyridazine derivatives, pharmaceutical compositions, and methods of use as β-secretase inhibitors” (High Point Pharmaceuticals, LLC, priority 2010, dated 2013).

SMILES strings stand for the structures.

One experiment concerns the target T1, BACE-1 enzyme (Homo sapiens, UniProt P56817).
T1 construct: purchased R & D Systems 931AS
As to the kind of experiment: BACE Fluorescence Resonance Energy Transfer (FRET) Assay. Format: biochemical. The conditions noted are these: pH 4-4.5, 30 min pre-incubation, about 1.5 hours reaction, asterisk = mean. The gist of the method:
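BACE-1 enzyme pre-incubated 30 minutes with compound (7.5% DMSO) in 50 mM sodium acetate pH 4-4.5 with CHAPS, TritonX-100, EDTA. Rhodamine-quenched peptide substrate cleavage ran about 1.5 hours at room temperature; fluorescence read at 540/585 nm, giving IC50 or percent inhibition at one concentration.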

The nature of experiment [1]: Aβ Cell Based Assay (Aβ1-40 secretion, ELISA). Set-up: species or system human. The conditions noted are these: Homo sapiens, HEK293; HEK-APPwt cells, 6 hours incubation, reduction of Aβ1-40 secretion; asterisk = mean. The method, then: (§1) Aβ Cell Based Assay Procedure
(§2) In the following assay, the proteolytic activity of BACE in cells exposed to varying concentrations of a compound of interest is measured by observing the amount of Aβ1-40 secreted from HEK293 cells (Human Embryonic Kidney epithelial cell line) stably expressing wildtype human APP695 protein (HEK-APPwt cells).
(§3) HEK-APPwt cells were grown in high glucose DMEM (Dulbecco's Modified Eagles Medium SIGMA Cat. #D5796) supplemented with 25 mM HEPES (4-(2-hydroxyethyl)-1-piperazineethanesulfonic acid) (pH 7.4) (Invitrogen Cat. #15630-114), 0.1 mM NEAA (Non-essential Amino Acids) (BioWhittaker Cat. #13-114E), 10% fetal bovine serum (SIGMA Cat. #F4135) and 250 μg/mL hygromycin (Invitrogen Cat. #10687-010) in T-225 flasks at 37° C. with 5% CO2 and humidity control.
(§4) Test compounds were initially prepared in DMSO and diluted with DMEM media containing 2% FBS (Fetal bovine serum). Ten standard compound solutions were prepared having a range of concentrations. The standard compound solutions were used to determine the EC50 of the test compound. The range of concentrations chosen may depend on the compound's predicted potency.
(§5) To prepare cells for the assay, a flask containing HEK-APPwt cells were trypsinized briefly (1 mL trypsin), and once the cells detached, 4 mL of 10% FBS-DMEM was added to the flask. The detached cells were centrifuged at 900 rpm for 5 min to form a pellet.
(§6) The HEK-APPwt cell pellet was re-suspended with 10 mL DMEM media containing 2% FBS. 80 μL of the cell suspension was added to each well of a 96-well cell culture plate to give 100×10^4 cells/ml. 10 μL of a standard compound solution was added to each well of the 96-well cell culture plate followed by 10 μL of Alamar blue solution. The cells were incubated at 37° C. in a 5% CO2 incubator for 6 hours.
(§7) At the end of the incubation, the plates were removed from incubator, and the supernatant was collected. Aβ1-40 concentration in the medium was measured by using a commercial Aβ1-X ELISA kit (IBL, Japan Cat. #27729). Briefly, the ELISA plates were coated with an anti-human Aβ (N)(82E1) mouse IgG monoclonal antibody. A horseradish peroxidase conjugated anti-human Aβ11-28 mouse IgG monoclonal antibody was used for detection. The cell culture supernatant was diluted with EIA buffer+protease inhibitors (kit buffer containing protease inhibitors (1 mL PI/30 mL buffer)). A 100 μL aliquot of the diluted supernatant was added to each well of the ELISA plate and incubated for 6 hrs at 4° C. The ELISA plate was washed 8 times with phosphate buffered saline (PBS) containing 0.05% TWEEN 20.
(§8) A 100 μL of detection antibody was then added and incubated for 1 hour at 4° C. The plate was washed 8 times with PBS buffer containing 0.05% Tween 20 followed by addition of 100 μL of the chromogen tetramethylbenzidine (TMB). The plate was incubated in the dark at room temperature for about 30 min and a stop solution (1N H2SO4) was added.
(§9) The intensity of the color developed was measured at 450 nm. The optical density at 450 nm (OD450) is proportional to the concentration of human Aβ1-40 secreted by the cell. As a reference, N—[N-(3,5-difluorophenacetyl-L-alanyl)]—S-phenylglycine t-butyl ester (DAPT, a γ-secretase inhibitor) was used to indicate 100% inhibition of […]. Thus, the assay measures the ability of a compound of interest to reduce Aβ1-40 secretion. Compound potency is reported in Table 3 as the EC50 by calculating the percent inhibition at all concentration levels and the data were fit with non-linear curve fitting algorithm using GraphPad Prism.

Experiment [2] concerns Aβ1-40 secreted from HEK293 cells stably expressing wildtype human APP695 protein (HEK-APPwt cells); proteolytic activity of BACE. As to the kind of experiment: Aβ Cell Based Assay (Aβ1-40 secretion, ELISA). The conditions noted are these: 6 hours incubation, reduction of Aβ1-40 secretion, asterisk = mean. Here is the method: as §1, §2, §3, §4, §5, §6, §7, §8, §9
In general terms: In an ELISA, binding on a coated surface is turned into a signal by an enzyme label.

T1 sequence (P56817 46-457 limits assumed): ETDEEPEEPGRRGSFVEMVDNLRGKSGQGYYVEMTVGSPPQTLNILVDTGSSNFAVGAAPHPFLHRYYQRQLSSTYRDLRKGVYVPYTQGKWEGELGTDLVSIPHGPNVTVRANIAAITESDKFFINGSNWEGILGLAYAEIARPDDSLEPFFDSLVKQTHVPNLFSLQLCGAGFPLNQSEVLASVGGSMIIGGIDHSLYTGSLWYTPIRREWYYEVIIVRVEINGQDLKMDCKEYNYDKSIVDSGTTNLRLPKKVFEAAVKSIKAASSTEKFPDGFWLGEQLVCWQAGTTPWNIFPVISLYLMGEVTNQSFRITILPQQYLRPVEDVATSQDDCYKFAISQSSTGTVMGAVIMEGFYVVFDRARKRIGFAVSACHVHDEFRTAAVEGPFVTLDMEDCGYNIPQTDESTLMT

By IC50 is commonly meant the concentration that gives 50% inhibition. High values mean weaker potency in that assay, low ones greater potency in that assay. On BACE-1 enzyme, `C[C@H](O)[C@H](C)Oc1ccc2nc(C(=O)Nc3nc4cc(-c5cccc(C(F)(F)F)c5)ccc4[nH]3)cn2n1` [Example 101] yielded an IC50 of 0.136 µM. For the same molecule, the EC50 in experiment [1] was found to be 1.17 µM.
Taken in the same sequence, the figures for `O=C(Nc1nc2cc(-c3cc(F)cc(Cl)c3)ccc2[nH]1)c1cn2nc(OCCN3CCCC3=O)ccc2n1` [Example 54] were 0.211 µM and 0.87 µM.
The molecule `O=C(Nc1nc2cc(-c3cccc(OC(F)(F)F)c3)ccc2[nH]1)c1cn2nc(OCCO)ccc2n1` [Example 143, 6-(2-Hydroxy-ethoxy)-imidazol[1,2-b]pyridazine-2-carboxylic acid [5-(3-trifluoromethoxy-phenyl)-1H-benzoimidazol-2-yl]-amide] gave an IC50 on BACE-1 enzyme of 0.172 µM. In experiment [2], this molecule returned an EC50 of 1.07 µM.
`CC1(C)CCC(c2ccc3[nH]c(NC(=O)c4cn5nc(N6CCC(O)CC6)ccc5n4)nc3c2)CC1` [Example 83] returned an IC50 at BACE-1 enzyme of 0.18 µM. For the same molecule, the EC50 in experiment [1] was determined as 1.47 µM.
In the same order, the values of `O=C(Nc1nc2cc(-c3cccc(Cl)c3)ccc2[nH]1)c1cn2nc(OCCO)ccc2n1` [Example 144, 6-(2-hydroxy-ethoxy)-imidazo[1,2-b]pyridazine-2-carboxylic acid [5-(3-chloro-phenyl)-1H-benzoimidazol-2-yl]-amide] are 0.128 µM and 0.94 µM.
In the case of `O=C(Nc1nc2cc(-c3cc(F)cc(Cl)c3)ccc2[nH]1)c1cn2nc(OCC3(CO)CC3)ccc2n1` [Example 104], on BACE-1 enzyme, the IC50 worked out at 0.277 µM. For the same molecule, the EC50 in experiment [1] worked out at 0.33 µM.
Molecule `CC(C)[C@@H](O)COc1ccc2nc(C(=O)Nc3nc4cc(-c5cc(F)cc(Cl)c5)ccc4[nH]3)cn2n1` [Example 107] showed an IC50 against BACE-1 enzyme of 0.215 µM. For the same molecule, in experiment [1], the EC50 stood at 0.79 µM.
Taken in the same sequence, the figures for `C[C@@H](O)COc1ccc2nc(C(=O)Nc3nc4cc(-c5ccc(C(F)(F)F)c(Cl)c5)ccc4[nH]3)cn2n1` [Example 122, 6-((R)-2-hydroxy-propoxy)-imidazol[1,2-b]pyridazine-2-carboxylic acid [5-(3-chloro-4-trifluoromethyl-phenyl)-1H-benzoimidazol-2-yl]-amide] were 0.371 µM and 0.1 µM.
In the same order, the values of `CN1CCN(CCOc2ccc3nc(C(=O)Nc4nc5cc(-c6cccc(OC(F)(F)F)c6)ccc5[nH]4)cn3n2)CC1` [Example 35] are 0.315 µM and 3.13 µM.
In the same order, the values of `C[C@H](O)[C@@H](C)Oc1ccc2nc(C(=O)Nc3nc4cc(-c5cccc(C(F)(F)F)c5)ccc4[nH]3)cn2n1` [Example 99] are 0.189 µM and 0.78 µM.
For `C[C@H](O)COc1ccc2nc(C(=O)Nc3nc4cc(-c5ccc(C(F)(F)F)c(Cl)c5)ccc4[nH]3)cn2n1` [Example 123, 6-((S)-2-Hydroxy-propoxy)-imidazo[1,2-b]pyridazine-2-carboxylic acid [5-(3-chloro-4-trifluoromethyl-phenyl)-1H-benzoimidazol-2-yl]-amide], the IC50 on BACE-1 enzyme stood at 0.372 µM. In experiment [1], the EC50 came to 0.12 µM.
On to `CN(C)CCN(C)CCOc1ccc2nc(C(=O)Nc3nc4cc(-c5cc(F)cc(Cl)c5)ccc4[nH]3)cn2n1` [Example 49], for which half-maximal inhibition against BACE-1 enzyme (IC50) required 0.21 µM. Moreover, the EC50 in experiment [1] was 1.8 µM.
In the same order, the values of `O=C(Nc1nc2cc(-c3cccc(C(F)(F)F)c3)ccc2[nH]1)c1cn2nc(OCCN3CCCCC3)ccc2n1` [Example 46] are 0.248 µM and 3.81 µM.
In the same order, the values of `O=C(Nc1nc2cc(-c3cc(F)cc(Cl)c3)ccc2[nH]1)c1cn2nc(OCC3(CO)CCC3)ccc2n1` [Example 132] are 0.344 µM and 0.47 µM.
Taken in the same sequence, the figures for `CC(C)[C@H](O)COc1ccc2nc(C(=O)Nc3nc4cc(-c5cc(F)cc(Cl)c5)ccc4[nH]3)cn2n1` [Example 108] were 0.357 µM and 0.89 µM.
Consider `CC1(C)CCC(c2ccc3[nH]c(NC(=O)c4cn5nc(N6CCCC(O)C6)ccc5n4)nc3c2)CC1` (stereo not shown) [Example 84], for which the midpoint of inhibition against BACE-1 enzyme, the IC50, lay at 0.191 µM. Moreover, the EC50 in experiment [1] came to 1.71 µM.
In the same order, the values of `O=C(Nc1nc2cc(-c3cccc(C(F)(F)F)c3)ccc2[nH]1)c1cn2nc(OCCN3CCCC3=O)ccc2n1` [Example 25] are 0.316 µM and 1.35 µM.
In the same order, the values of `O=C(Nc1nc2cc(-c3cc(F)cc(Cl)c3)ccc2[nH]1)c1cn2nc(OCCCCO)ccc2n1` [Example 130] are 0.169 µM and 0.23 µM.
Taken in the same sequence, the figures for `O=C(Nc1nc2cc(-c3ccc(F)c(Cl)c3)ccc2[nH]1)c1cn2nc(OCCO)ccc2n1` [Example 131, 6-(2-Hydroxy-ethoxy)-imidazo[1,2-b]pyridazine-2-carboxylic acid [5-(3-chloro-4-fluoro-phenyl)-1H-benzoimidazol-2-yl]-amide] were 0.245 µM and 0.15 µM.
Consider `O=C(Nc1nc2cc(-c3cccc(C(F)(F)F)c3)ccc2[nH]1)c1cn2nc(OCCN3CCNC3=O)ccc2n1` [Example 26], for which, at BACE-1 enzyme, the midpoint of inhibition, the IC50, lay at 0.222 µM. The molecule also showed an EC50 in experiment [1] of 1.41 µM.
Taken in the same sequence, the figures for `CC1(COc2ccc3nc(C(=O)Nc4nc5cc(-c6cc(F)cc(Cl)c6)ccc5[nH]4)cn3n2)COC1` [Example 98] were 0.248 µM and 0.44 µM.
In the same order, the values of `O=C(Nc1nc2cc(-c3cc(F)cc(Cl)c3)ccc2[nH]1)c1cn2nc(OC[C@@H]3CCCO3)ccc2n1` [Example 147, 6-[(S)-1-(Tetrahydro-furan-2-yl)methoxy]-imidazol[1,2-b]pyridazine-2-carboxylic acid [5-(3-chloro-5-fluoro-phenyl)-1H-benzoimidazol-2-yl]-amide] are 0.207 µM and 0.27 µM.
Taken in the same sequence, the figures for `CC[C@@H](O)COc1ccc2nc(C(=O)Nc3nc4cc(-c5cc(F)cc(Cl)c5)ccc4[nH]3)cn2n1` [Example 105] were 0.064 µM and 1.27 µM.
On to `CC(C)(O)COc1ccc2nc(C(=O)Nc3nc4cc(-c5cccc(OC(F)(F)F)c5)ccc4[nH]3)cn2n1` [Example 112], for which, on BACE-1 enzyme, half-maximal inhibition (IC50) was put at 0.251 µM. Besides, the EC50 in experiment [1] was found to be 0.48 µM.
On BACE-1 enzyme, `COc1ccc2nc(C(=O)Nc3nc4cc(-c5cc(F)cc(Cl)c5)ccc4[nH]3)cn2n1` [Example 7] gave an IC50 of 0.225 µM. The molecule also had an EC50 in experiment [1] of 0.7 µM.
In the same order, the values of `CN1CC[C@H](Oc2ccc3nc(C(=O)Nc4nc5cc(-c6cc(F)cc(Cl)c6)ccc5[nH]4)cn3n2)C1` [Example 69] are 0.3 µM and 2.93 µM.
In the same order, the values of `O=C(Nc1nc2cc(-c3cccc(OC(F)(F)F)c3)ccc2[nH]1)c1cn2nc(OCCn3cncn3)ccc2n1` [Example 29] are 0.314 µM and 2.58 µM.
Taken in the same sequence, the figures for `CCCC[C@H](O)COc1ccc2nc(C(=O)Nc3nc4cc(-c5cc(F)cc(Cl)c5)ccc4[nH]3)cn2n1` [Example 127] were 0.163 µM and 0.71 µM.
`O=C(Nc1nc2cc(-c3cccc(OC(F)(F)F)c3)ccc2[nH]1)c1cn2nc(OCCN3CCOCC3)ccc2n1` [Example 32] displayed an IC50 against BACE-1 enzyme of 0.234 µM. The molecule further yielded an EC50 in experiment [1] of 0.59 µM.
